Laboratory results from PubChem BioAssay AID1259407 (Chemical Carcinogenesis Research Information System (CCRIS), 2018).
Active and inactive are the calls of the source. The rule behind the calls is not given here.

Test system: CCRIS mutagenicity, Ames/micronucleus/aberration tests
Experiment: CCRIS mutagenicity studies
[1] = Test System: AMES SALMONELLA TYPHIMURIUM, Strain/Indicator: TA98, Metabolic Activation: NONE, Method: STANDARD PLATE
[2] = Test System: AMES SALMONELLA TYPHIMURIUM, Strain/Indicator: TA98, Metabolic Activation: RAT, LIVER, S-9, AROCLOR 1254, Method: STANDARD PLATE
[3] = Test System: AMES SALMONELLA TYPHIMURIUM, Strain/Indicator: TA100, Metabolic Activation: NONE, Method: STANDARD PLATE
[4] = Test System: AMES SALMONELLA TYPHIMURIUM, Strain/Indicator: TA100, Metabolic Activation: RAT, LIVER, S-9, AROCLOR 1254, Method: STANDARD PLATE
[5] = Test System: AMES SALMONELLA TYPHIMURIUM, Strain/Indicator: TA1535, Metabolic Activation: NONE, Method: STANDARD PLATE
[6] = Test System: AMES SALMONELLA TYPHIMURIUM, Strain/Indicator: TA1535, Metabolic Activation: RAT, LIVER, S-9, AROCLOR 1254, Method: STANDARD PLATE
[7] = Test System: AMES SALMONELLA TYPHIMURIUM, Strain/Indicator: TA1537, Metabolic Activation: NONE, Method: STANDARD PLATE
[8] = Test System: AMES SALMONELLA TYPHIMURIUM, Strain/Indicator: TA1537, Metabolic Activation: RAT, LIVER, S-9, AROCLOR 1254, Method: STANDARD PLATE
[9] = Test System: MOUSE LYMPHOMA, Strain/Indicator: L5178Y (TK+/TK-), Metabolic Activation: NONE, Method: SUSPENSION/PLATE
[10] = Test System: MOUSE LYMPHOMA, Strain/Indicator: L5178Y (TK+/TK-), Metabolic Activation: RAT, LIVER, S-9, AROCLOR 1254, Method: SUSPENSION/PLATE

Question: What does the source list for `C[C@H]1[C@H](C)CC[C@]2(C(=O)O[C@@H]3O[C@H](CO[C@@H]4O[C@H](CO)[C@@H](O[C@@H]5O[C@@H](C)[C@H](O)[C@@H](O)[C@H]5O)[C@H](O)[C@H]4O)[C@@H](O)[C@H](O)[C@H]3O)CC[C@]3(C)C(=CC[C@@H]4[C@@]5(C)C[C@@H](O)[C@H](O)[C@@](C)(CO)[C@@H]5CC[C@]43C)[C@H]12`?
Answer: mutagenic call (End Point: IN VITRO CHROMOSOMAL ABERRATIONS, Test System: CHL CELLS, Metabolic Activation: NONE): inactive; negative; mutagenic call (End Point: IN VITRO CHROMOSOMAL ABERRATIONS, Test System: CHL CELLS, Metabolic Activation: RAT, LIVER, S-9, AROCLOR 1254): inactive; negative; mutagenic call (End Point: IN VIVO MICRONUCLEUS, Test System: BONE MARROW, Species: MOUSE, Strain/Sex: ICR, Route: GAVAGE): inactive; negative; mutagenic call [1]: inactive; negative; mutagenic call [2]: inactive; negative; mutagenic call [3]: inactive; negative; mutagenic call [4]: inactive; negative; mutagenic call [5]: inactive; negative; mutagenic call [6]: inactive; negative; mutagenic call [7]: inactive; negative; mutagenic call [8]: inactive; negative; mutagenic call (Test System: E. COLI, Strain/Indicator: WP2UVRA, Metabolic Activation: RAT, LIVER, S-9, AROCLOR 1254, Method: STANDARD PLATE): inactive; negative; mutagenic call (Test System: E.COLI, Strain/Indicator: WP2UVRA, Metabolic Activation: NONE, Method: STANDARD PLATE): inactive; negative

Question: Which results are given for `CC(=O)OC[C@@]1(O)CC23CC[C@@H]4c5ccoc5CC[C@@]4(C)[C@@H]2CC[C@@H]1C3`?
Answer: mutagenic call (Test System: AMES SALMONELLA TYPHIMURIUM, Strain/Indicator: TM677, Metabolic Activation: NONE, Method: PREINCUBATION): inactive; negative; mutagenic call (Test System: AMES SALMONELLA TYPHIMURIUM, Strain/Indicator: TM677, Metabolic Activation: RAT, LIVER, S-9, AROCLOR 1254, Method: PREINCUBATION): inactive; negative

Question: Which results are given for `CC1=CC(O)=NS(=O)(=O)O1`?
Answer: mutagenic call (End Point: In vivo micronucleus, Test System: Peripheral blood normochromatic erythrocytes, Species: Mouse, Strain/Sex: FVB.N/TgN (v-Ha-ras) Tg.AC hemizygous/Female, Route: Oral): inactive; negative; mutagenic call (End Point: In vivo micronucleus, Test System: Peripheral blood normochromatic erythrocytes, Species: Mouse, Strain/Sex: FVB.N/TgN (v-Ha-ras) Tg.AC hemizygous/Male, Route: Oral): inactive; negative; mutagenic call (End Point: In vivo micronucleus, Test System: Peripheral blood normochromatic erythrocytes, Species: Mouse, Strain/Sex: p53 Haploinsufficient/ Female, Route: Oral): inactive; negative; mutagenic call (End Point: In vivo micronucleus, Test System: Peripheral blood normochromatic erythrocytes, Species: Mouse, Strain/Sex: p53 Haploinsufficient/Male, Route: Oral): active; positive; mutagenic call [9]: inactive; negative. reevaluation of results: negative; mutagenic call [10]: inactive; negative. reevaluation of results: negative

Question: Which results are given for `O=S(=O)(O)c1cccc2cccnc12`?
Answer: mutagenic call [1]: inactive; negative; mutagenic call [2]: inactive; negative; mutagenic call [3]: inactive; negative; mutagenic call [4]: inactive; negative; mutagenic call [5]: inactive; negative; mutagenic call [6]: inactive; negative; mutagenic call [7]: inactive; negative; mutagenic call [8]: inactive; negative

Question: Which mutagenic call (Test System: AMES SALMONELLA TYPHIMURIUM, Strain/Indicator: TA97, Metabolic Activation: HAMSTER, LIVER, S-9, AROCLOR 1254 (10 OR 30%), Method: PREINCUBATION) does the source give for `Cc1ccc(N(C)C)cc1` here?
Answer: Its mutagenic call is “inactive; negative”.

Question: What about the mutagenic call (Test System: AMES SALMONELLA TYPHIMURIUM, Strain/Indicator: TA97, Metabolic Activation: NONE, Method: PREINCUBATION) of the same compound?
Answer: Its mutagenic call is “inactive; negative”.

Question: What about the mutagenic call (Test System: AMES SALMONELLA TYPHIMURIUM, Strain/Indicator: TA97, Metabolic Activation: RAT, LIVER, S-9, AROCLOR 1254 (10 OR 30%), Method: PREINCUBATION) of the same compound?
Answer: The mutagenic call was “inactive; negative”.

Question: What about the mutagenic call (Test System: AMES SALMONELLA TYPHIMURIUM, Strain/Indicator: TA98, Metabolic Activation: HAMSTER, LIVER, S-9, AROCLOR 1254 (10 OR 30%), Method: PREINCUBATION) of the same compound?
Answer: The mutagenic call was “inactive; negative”.

Question: And the mutagenic call (Test System: AMES SALMONELLA TYPHIMURIUM, Strain/Indicator: TA98, Metabolic Activation: NONE, Method: PREINCUBATION)?
Answer: The mutagenic call was “inactive; negative”.

Question: What about the mutagenic call (Test System: AMES SALMONELLA TYPHIMURIUM, Strain/Indicator: TA98, Metabolic Activation: RAT, LIVER, S-9, AROCLOR 1254 (10 OR 30%), Method: PREINCUBATION) of the same compound?
Answer: Its mutagenic call is “inactive; negative”.

Question: What about the mutagenic call (Test System: AMES SALMONELLA TYPHIMURIUM, Strain/Indicator: TA100, Metabolic Activation: HAMSTER, LIVER, S-9, AROCLOR 1254 (10 OR 30%), Method: PREINCUBATION) of the same compound?
Answer: The mutagenic call was “inactive; negative”.

Question: What about the mutagenic call (Test System: AMES SALMONELLA TYPHIMURIUM, Strain/Indicator: TA100, Metabolic Activation: NONE, Method: PREINCUBATION) of the same compound?
Answer: The mutagenic call was “inactive; negative”.

Question: What about the mutagenic call (Test System: AMES SALMONELLA TYPHIMURIUM, Strain/Indicator: TA100, Metabolic Activation: RAT, LIVER, S-9, AROCLOR 1254 (10 OR 30%), Method: PREINCUBATION) of the same compound?
Answer: The mutagenic call was “inactive; negative”.

Question: What about the mutagenic call (Test System: AMES SALMONELLA TYPHIMURIUM, Strain/Indicator: TA1535, Metabolic Activation: RAT, LIVER, S-9, AROCLOR 1254 (5%), Method: STANDARD PLATE) of the same compound?
Answer: The mutagenic call was “active; positive”.

Question: What about the mutagenic call (Test System: AMES SALMONELLA TYPHIMURIUM, Strain/Indicator: TA1535, Metabolic Activation: RAT, LIVER, S-9, AROCLOR 1254 (5,10%), Method: PREINCUBATION) of the same compound?
Answer: The mutagenic call was “active; positive”.

Question: What about the mutagenic call [9] of the same compound?
Answer: Its mutagenic call is “active; positive. reevaluation of results: equivocal”.

Question: What about the mutagenic call [10] of the same compound?
Answer: The mutagenic call was “active; positive. reevaluation of results: positive”.
